Literature values, collected in patent US7166468B2, “Production of the lantibiotic cinnamycin with genes isolated from Streptomyces cinnamoneus” (Plant Bioscience Limited, priority 2001, dated 2007).
Ends that are not written are not given here.

System: B. subtilis
Details: stated as known activity

cinnamycin (CRQSCSFGPFTFVCDGNTK; thioether (positions not given here); not fully specified (bridges); also: lanthionine bridges, positions not given here)
Known activity of cinnamycin: inhibition of the growth of B. subtilis strains: inhibition of the growth of the B. subtilis strains
